Measured values reported in patent publication US10131652B2, “Pyrimidinyloxy benzene derivatives as herbicides” (E. I. DU PONT DE NEMOURS AND COMPANY, priority 2014, dated 2018).

Assays:
Format in all cases: in vivo
[1] = system: giant foxtail (Setaria faberii); assay: Test F pre-/postemergence plant response; conditions: Setaria faberi, pre-emergence, scale 0 to 100, read-out: Plant response rating, Foxtail, Giant
Source text: (§1) Seeds of plant species selected from corn (Zea mays), soybean (Glycine max), velvetleaf (Abutilon theophrasti), lambsquarters (Chenopodium album), wild poinsettia (Euphorbia heterophylla), palmer pigweed (Amaranthus palmeri), waterhemp (common waterhemp, Amaranthus rudis), surinam grass (Brachiaria decumbens), large (Lg) crabgrass (Digitaria sanguinalis), Brazilian crabgrass (Digitaria horizontalis), fall panicum (Panicum dichotomiflorum), giant foxtail (Setaria faberii), green foxtail (Setaria viridis), goosegrass (Eleusine indica), johnsongrass (Sorghum halepense), ragweed (common ragweed, Ambrosia elatior), barnyardgrass (Echinochloa crus-galli), sandbur (southern sandbur, Cenchrus echinatus), arrowleaf sida (Sida rhombifolia), Italian ryegrass (Lolium multiflorum), dayflower (Virginia (VA) dayflower, Commelina virginica), field bindweed (Convolvulus arvensis), cocklebur (common cocklebur, Xanthium strumarium), momingglory (Ipomoea coccinea), nightshade (eastern black nightshade, Solanum ptycanthum), kochia (Kochia scoparia), yellow nutsedge (Cyperus esculentus), and hairy beggarticks (Bidens pilosa), were planted into a silt loam soil and treated preemergence with test chemicals formulated in a non-phytotoxic solvent mixture which included a surfactant.
(§2) At the same time, plants from these crop and weed species and also waterhemp_RES1, (ALS & Triazine resistant common waterhemp, Amaranthus rudis), and waterhemp_RES2, (ALS & HPPD resistant common waterhemp, Amaranthus rudis) were treated with postemergence applications of test chemicals formulated in the same manner. Plants ranged in height from 2 to 18 cm for postemergence treatments (1- to 4-leaf stage).
(§3) Treated plants and controls were maintained in a greenhouse for 14 to 21 days, after which time all species were compared to controls and visually evaluated. Plant response ratings, summarized in Table F, are based on a scale of 0 to 100 where 0 is no effect and 100 is complete control. A dash (-) response means no test result.

[2] = system: large (Lg) crabgrass (Digitaria sanguinalis); assay: Test F pre-/postemergence plant response; conditions: Digitaria sanguinalis, pre-emergence, scale 0 to 100, read-out: Plant response rating, Crabgrass, Large
Source text: as §1, §2, §3

[3] = system: morningglory (Ipomoea coccinea); assay: Test F pre-/postemergence plant response; conditions: Ipomoea, pre-emergence, scale 0 to 100, read-out: Plant response rating, Morningglory
Source text: as §1, §2, §3

[4] = system: nightshade (eastern black nightshade, Solanum ptycanthum); assay: Test F pre-/postemergence plant response; conditions: Solanum, pre-emergence, scale 0 to 100, read-out: Plant response rating, Nightshade
Source text: as §1, §2, §3

[5] = system: fall panicum (Panicum dichotomiflorum); assay: Test F pre-/postemergence plant response; conditions: scale 0 to 100
Source text: as §1, §2, §3

kochia (Kochia scoparia) = assay: Test F pre-/postemergence plant response; conditions: scale 0 to 100
Source text: as §1, §2, §3

[6] = system: field bindweed (Convolvulus arvensis); assay: Test F pre-/postemergence plant response; conditions: scale 0 to 100
Source text: as §1, §2, §3

[7] = system: waterhemp_RES1 (ALS & Triazine resistant common waterhemp, Amaranthus rudis); assay: Test F postemergence plant response; conditions: scale 0 to 100
Protocol: as §2, §3

[8] = system: waterhemp_RES2 (ALS & HPPD resistant common waterhemp, Amaranthus rudis); assay: Test F postemergence plant response; conditions: scale 0 to 100
Protocol: as §2, §3

Fc1cccc(Oc2ncc(Cl)cn2)c1-c1cc(C(F)(F)F)on1 [Compound 168, 5-chloro-2-[2-[5-(trifluoromethyl)-3-isoxazolyl]-3-fluorophenoxy]pyrimidine]
pest or weed control at 16 g/ha ([1]; 16 g ai/ha Preemergence): 65%
pest or weed control at 31 g/ha ([1]; 31 g ai/ha Preemergence): 98%
pest or weed control at 62 g/ha ([1]; 62 g ai/ha Preemergence): 100%
pest or weed control at 125 g/ha ([1]; 125 g ai/ha Preemergence): 100%
pest or weed control at 16 g/ha ([2]; 16 g ai/ha Preemergence): 65%
pest or weed control at 31 g/ha ([2]; 31 g ai/ha Preemergence): 95%
pest or weed control at 62 g/ha ([2]; 62 g ai/ha Preemergence): 98%
pest or weed control at 125 g/ha ([2]; 125 g ai/ha Preemergence): 100%
pest or weed control at 16 g/ha ([3]; 16 g ai/ha Preemergence): 0%
pest or weed control at 31 g/ha ([3]; 31 g ai/ha Preemergence): 0%
pest or weed control at 125 g/ha ([3]; 125 g ai/ha Preemergence): 75%
pest or weed control at 62 g/ha ([3]; Preemergence): 15%
pest or weed control at 16 g/ha ([4]; 16 g ai/ha Preemergence): 5%
pest or weed control at 31 g/ha ([4]; 31 g ai/ha Preemergence): 98%
pest or weed control at 125 g/ha ([4]; 125 g ai/ha Preemergence): 98%
pest or weed control at 62 g/ha ([4]; Preemergence): 98%
pest or weed control at 16 g/ha ([5]; Panicum dichotomiflorum, pre-emergence, 16 g ai/ha Preemergence, read-out: Plant response rating, Panicum, Fall): 35%
pest or weed control at 31 g/ha ([5]; Panicum dichotomiflorum, pre-emergence, 31 g ai/ha Preemergence, read-out: Plant response rating, Panicum, Fall): 95%
pest or weed control at 125 g/ha ([5]; Panicum dichotomiflorum, pre-emergence, 125 g ai/ha Preemergence, read-out: Plant response rating, Panicum, Fall): 100%
pest or weed control at 62 g/ha ([5]; Panicum dichotomiflorum, pre-emergence, Preemergence, read-out: Plant response rating, Panicum, Fall): 100%
pest or weed control at 16 g/ha (kochia (Kochia scoparia); Bassia scoparia, pre-emergence, 16 g ai/ha, Preemergence, read-out: Plant response rating, Kochia): 95%
pest or weed control at 31 g/ha (kochia (Kochia scoparia); Bassia scoparia, pre-emergence, 31 g ai/ha, Preemergence, read-out: Plant response rating, Kochia): 100%
pest or weed control at 125 g/ha (kochia (Kochia scoparia); Bassia scoparia, pre-emergence, 125 g ai/ha, Preemergence, read-out: Plant response rating, Kochia): 100%
pest or weed control at 62 g/ha (kochia (Kochia scoparia); Bassia scoparia, pre-emergence, Preemergence, read-out: Plant response rating, Kochia): 100%
pest or weed control at 16 g/ha ([6]; Convolvulus arvensis, pre-emergence, 16 g ai/ha Preemergence, read-out: Plant response rating, Field Bindweed): 40%
pest or weed control at 31 g/ha ([6]; Convolvulus arvensis, pre-emergence, 31 g ai/ha Preemergence, read-out: Plant response rating, Field Bindweed): 60%
pest or weed control at 62 g/ha ([6]; Convolvulus arvensis, pre-emergence, 62 g ai/ha Preemergence, read-out: Plant response rating, Field Bindweed): 50%
pest or weed control at 125 g/ha ([6]; Convolvulus arvensis, pre-emergence, 125 g ai/ha Preemergence, read-out: Plant response rating, Field Bindweed): 70%

FC(F)c1cc(-c2ccccc2Oc2ncc(Br)cn2)on1 [Compound 212]
Plant response rating, Waterhemp_RES1 ([7]; 16 g ai/ha Postemergence): 70
Plant response rating, Waterhemp_RES1 ([7]; 31 g ai/ha Postemergence): 80
Plant response rating, Waterhemp_RES1 ([7]; 62 g ai/ha Postemergence): 95
Plant response rating, Waterhemp_RES1 ([7]; 125 g ai/ha Postemergence): 98
Plant response rating, Waterhemp_RES2 ([8]; 16 g ai/ha Postemergence): 70
Plant response rating, Waterhemp_RES2 ([8]; 31 g ai/ha Postemergence): 95
Plant response rating, Waterhemp_RES2 ([8]; 62 g ai/ha Postemergence): 98
Plant response rating, Waterhemp_RES2 ([8]; 125 g ai/ha Postemergence): 100
Plant response rating, Panicum, Fall ([5]; 16 g ai/ha Postemergence): 0
Plant response rating, Panicum, Fall ([5]; 31 g ai/ha Postemergence): 0
Plant response rating, Panicum, Fall ([5]; 62 g ai/ha Postemergence): 10
Plant response rating, Panicum, Fall ([5]; 125 g ai/ha Postemergence): 10
Plant response rating, Kochia (kochia (Kochia scoparia); 16 g ai/ha Postemergence): 50
Plant response rating, Kochia (kochia (Kochia scoparia); 31 g ai/ha Postemergence): 90
Plant response rating, Kochia (kochia (Kochia scoparia); 62 g ai/ha Postemergence): 100
Plant response rating, Kochia (kochia (Kochia scoparia); 125 g ai/ha Postemergence): 100
Plant response rating, Field Bindweed ([6]; 16 g ai/ha Postemergence): 30
Plant response rating, Field Bindweed ([6]; 31 g ai/ha Postemergence): 40
Plant response rating, Field Bindweed ([6]; 62 g ai/ha Postemergence): 60
Plant response rating, Field Bindweed ([6]; 125 g ai/ha Postemergence): 70

Fc1ccc(Oc2ncc(Cl)cn2)c(-c2cc(C(F)(Cl)Cl)on2)c1 [Compound 221]
Plant response rating, Waterhemp_RES1 ([7]; 16 g ai/ha Postemergence): 85
Plant response rating, Waterhemp_RES1 ([7]; 31 g ai/ha Postemergence): 95
Plant response rating, Waterhemp_RES1 ([7]; 62 g ai/ha Postemergence): 100
Plant response rating, Waterhemp_RES1 ([7]; 125 g ai/ha Postemergence): 98
Plant response rating, Waterhemp_RES2 ([8]; 16 g ai/ha Postemergence): 90
Plant response rating, Waterhemp_RES2 ([8]; 31 g ai/ha Postemergence): 98
Plant response rating, Waterhemp_RES2 ([8]; 62 g ai/ha Postemergence): 95
Plant response rating, Waterhemp_RES2 ([8]; 125 g ai/ha Postemergence): 100
Plant response rating, Panicum, Fall ([5]; 16 g ai/ha Postemergence): 10
Plant response rating, Panicum, Fall ([5]; 31 g ai/ha Postemergence): 15
Plant response rating, Panicum, Fall ([5]; 62 g ai/ha Postemergence): 40
Plant response rating, Panicum, Fall ([5]; 125 g ai/ha Postemergence): 60
Plant response rating, Kochia (kochia (Kochia scoparia); 16 g ai/ha Postemergence): 95
Plant response rating, Kochia (kochia (Kochia scoparia); 31 g ai/ha Postemergence): 98
Plant response rating, Kochia (kochia (Kochia scoparia); 62 g ai/ha Postemergence): 100
Plant response rating, Kochia (kochia (Kochia scoparia); 125 g ai/ha Postemergence): 100
Plant response rating, Field Bindweed ([6]; 16 g ai/ha Postemergence): 70
Plant response rating, Field Bindweed ([6]; 31 g ai/ha Postemergence): 75
Plant response rating, Field Bindweed ([6]; 125 g ai/ha Postemergence): 80
